# Experimental data published in patent US11465965B2, “Double-headed protease inhibitor” (UBE INDUSTRIES, LTD., priority 2017, dated 2022).
# Assays:
# in vivo = details: male, SD, rat, po, 10 mg/kg
# [1] = target: T1, Human recombinant enteropeptidase (Homo sapiens, UniProt P98073); test: Human enteropeptidase inhibition test; format: biochemical; details: 20 minutes after reaction start, read-out: Inhibition rate (enteropeptidase); for inhibition at 0.001 µM: compound concentration 1 nM; for inhibition at 0.01 µM: compound concentration 10 nM; for inhibition at 0.1 µM: compound concentration 100 nM
# T1 construct: purchased BIO Vision Inc. 7529-50
# Summary of the method: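 Recombinant human enteropeptidase in 50 mM tricine pH 8.0, 0.01% Tween 20, 10 mM CaCl2 cleaving 1.5 μM 5FAM/CPQ2-quenched peptide substrate (stock solution concentration). Fluorescence (ex 485/em 535 nm) read 20 min after enzyme addition; % inhibition versus no-compound and no-enzyme controls.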
# [2] = target: T2, Human recombinant trypsin (Homo sapiens, UniProt P07477); test: Human trypsin inhibition test; format: biochemical; details: 20 minutes after reaction start, read-out: Inhibition rate (trypsin); for inhibition at 0.01 µM: compound concentration 10 nM; for inhibition at 0.1 µM: compound concentration 100 nM
# T2 construct: purchased Wako Pure Chemical Industries, Ltd. 206-17171
# Summary of the method: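 Trypsin diluted to 10 ng/mL in 0.1 M Tris-HCl pH8.0, 0.15 M NaCl, 10 mM CaCl2, 0.05% Brij35; substrate solution 40 μM Boc-Phe-Ser-Arg-MCA, compounds in 1% DMSO buffer. Fluorescence (ex 355/em 460 nm) read 20 min after enzyme addition; % inhibition versus no-compound and no-enzyme controls.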
# HFD-fed mouse = test: Fecal protein concentration-increasing test by single administration using HFD-fed mouse; format: in vivo; details: 24 h, HFD-fed mice, single oral dose 50 mg/kg, vs vehicle group, read-out: Ratio for an increase of protein concentration in feces
# Source text: (Test Example 3): Fecal Protein Concentration-Increasing Test by Single Administration Using HFD-Fed Mouse
# High fat diet-fed (HFD-fed) mice (D-12492 diet, male, ICR, 6 week old) were orally administered with a 0.5 W/V % methylcellulose suspension comprising each test compound (Compound administration group, 4 or 5 mice/group) or a 0.5 W/V % methylcellulose suspension (Compound non-administration group (Vehicle group), 5, 6, or 7 mice/group), and whole feces of the day were collected. Dried feces were dissolved into a 0.5N aqueous sodium hydroxide solution, followed by centrifugation at 3500 rpm. Then each protein concentration in the resulting supernatant was determined (Lowry method), and the ratio for an increase of protein concentration in feces was calculated by the following equation using the protein concentration in feces contained in 1 g of feces (mg/g feces). Ratio for an increase of protein concentration in feces−(average protein concentration in feces of Compound administration group)[…](average protein concentration in feces of Compound non-administration group)
# DIO mouse = test: Anti-obesity effect test using DIO mouse; format: in vivo; details: 336 h, DIO mice, oral 50 mg/kg once daily for 2 weeks, vs vehicle group, read-out: Weight loss rate
# Summary of the method: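 Male C57BL-DIO mice on D-12492 diet, 26 to 28-week old, 5 or 6 per group; compound dosed orally once daily for 2 weeks as 0.5 W/V % methylcellulose suspension, vehicle group on suspension alone. Weight loss rate (%) = (1 − mean final-day weight of treated group / mean final-day weight of vehicle group) × 100.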
# [3] = Rat pharmacokinetic (PK) test (plasma concentration after oral administration); details: male, SD, 10 mg/kg
# T1 sequence (P98073 whole entry): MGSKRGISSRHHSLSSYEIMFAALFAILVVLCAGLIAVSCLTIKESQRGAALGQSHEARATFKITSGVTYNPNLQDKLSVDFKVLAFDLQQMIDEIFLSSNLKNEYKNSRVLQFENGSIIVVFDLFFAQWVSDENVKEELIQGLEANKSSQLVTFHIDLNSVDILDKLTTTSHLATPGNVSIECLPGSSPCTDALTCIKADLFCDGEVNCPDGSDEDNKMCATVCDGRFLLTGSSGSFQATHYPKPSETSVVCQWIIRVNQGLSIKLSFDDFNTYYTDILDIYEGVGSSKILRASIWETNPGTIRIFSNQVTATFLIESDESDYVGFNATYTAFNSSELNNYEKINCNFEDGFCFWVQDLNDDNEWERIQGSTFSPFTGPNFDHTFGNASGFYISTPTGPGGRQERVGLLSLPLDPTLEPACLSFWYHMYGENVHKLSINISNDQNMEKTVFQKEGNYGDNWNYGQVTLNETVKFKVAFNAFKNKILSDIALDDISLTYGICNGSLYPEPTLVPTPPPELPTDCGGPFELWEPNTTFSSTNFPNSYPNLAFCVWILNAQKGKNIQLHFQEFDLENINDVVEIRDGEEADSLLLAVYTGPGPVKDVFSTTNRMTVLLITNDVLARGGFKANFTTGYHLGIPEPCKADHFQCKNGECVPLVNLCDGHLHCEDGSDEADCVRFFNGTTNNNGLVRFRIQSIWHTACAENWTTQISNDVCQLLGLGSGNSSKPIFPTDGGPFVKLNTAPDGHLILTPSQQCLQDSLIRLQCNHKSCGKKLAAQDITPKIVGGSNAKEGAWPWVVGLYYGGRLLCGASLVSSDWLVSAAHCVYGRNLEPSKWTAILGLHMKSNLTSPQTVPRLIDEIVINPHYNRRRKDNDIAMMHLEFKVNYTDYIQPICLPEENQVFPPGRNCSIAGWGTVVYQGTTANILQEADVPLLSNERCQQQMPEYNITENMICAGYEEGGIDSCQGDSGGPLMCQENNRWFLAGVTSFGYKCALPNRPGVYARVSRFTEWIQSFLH
AUC (in vivo) [ng·h/mL],inhibition at 0.001 µM [1] [%],inhibition at 0.01 µM [1] [%],inhibition at 0.001 µM ([2]; compound concentration 1 nM) [%],inhibition at 0.01 µM [2] [%],AUC [3] [ng·h/mL],inhibition at 0.1 µM [1] [%],inhibition at 0.1 µM [2] [%],Compound,response vs control in vivo at 50 mg/kg (HFD-fed mouse) [%],inhibition in vivo at 50 mg/kg (DIO mouse) [%]
≤ 100,,,,,,,,"Cl.N=C(N)Nc1ccc2c(c1)CCCOc1c(cccc1C(=O)N(CCOCCOCCN(C(=O)c1cccc3c1OCCCc1cc(NC(=N)N)ccc1C(=O)O3)[C@@H](CC(=O)O)C(=O)O)[C@@H](CC(=O)O)C(=O)O)OC2=O [20-(c), (2S,13S)-3,12-bis(10-guanidino-13-oxo-6,7,8,13-tetrahydrodibenzo[b,f][1,4]dioxecin-4-carbonyl)-6,9-dioxa-3,12-diazatetradecane-1,2,13,14-tetracarboxylic acid hydrochloride]",,
≤ 100,,,,,,,,"Cl.N=C(N)Nc1ccc2c(c1)CCCOc1c(cccc1C(=O)N(CCOCCOCCN(C(=O)c1cccc3c1OCCCc1cc(NC(=N)N)ccc1C(=O)O3)[C@H](CC(=O)O)C(=O)O)[C@H](CC(=O)O)C(=O)O)OC2=O [21-(c), (2R,13R)-3,12-bis(10-guanidino-13-oxo-6,7,8,13-tetrahydrodibenzo[b,f][1,4]dioxecin-4-carbonyl)-6,9-dioxa-3,12-diazatetradecane-1,2,13,14-tetracarboxylic acid hydrochloride]",,
,≥ 50,≥ 50,≥ 50,≥ 50,≤ 100,,,"N=C(N)Nc1ccc2c(c1)CCCOc1c(cccc1C(=O)N(CCOCCN(C(=O)c1cccc3c1OCCCc1cc(NC(=N)N)ccc1C(=O)O3)[C@@H](CC(=O)O)C(=O)O)[C@@H](CC(=O)O)C(=O)O)OC2=O [26-(b), (2S,2′S)-2,2′-((oxybis(ethane-2,1-diyl))bis((10-guanidino-13-oxo-6,7,8,13-tetrahydrodibenzo[b,f][1,4]dioxecin-4-carbonyl)azanediyl))disuccinic acid]",≥ 130,≥ 4
,≥ 50,≥ 50,,≥ 50,≤ 100,≥ 50,≥ 50,N=C(N)Nc1ccc2c(c1)CCCOc1c(cccc1C(=O)N(Cc1cccc(-c3cccc(CN(C(=O)c4cccc5c4OCCCc4cc(NC(=N)N)ccc4C(=O)O5)[C@@H](CC(=O)O)C(=O)O)c3)c1)[C@@H](CC(=O)O)C(=O)O)OC2=O [28-(c)],≥ 130,≥ 4
,≥ 50,≥ 50,,,≤ 100,≥ 50,≥ 50,"Cl.N=C(N)Nc1ccc2c(c1)CCCOc1c(cccc1C(=O)N(Cc1cc(OCCOCCOc3cc(CN(C(=O)c4cccc5c4OCCCc4cc(NC(=N)N)ccc4C(=O)O5)[C@@H](CC(=O)O)C(=O)O)cc(C(=O)O)c3)cc(C(=O)O)c1)[C@@H](CC(=O)O)C(=O)O)OC2=O [29-(c), (2S,2′S)-2,2′-(((((oxybis(ethane-2,1-diyl))bis(oxy))bis(3-carboxy-5,1-phenylene))bis(methylene))bis((10-guanidino-13-oxo-6,7,8,13-tetrahydrodibenzo[b,f][1,4]dioxecin-4-carbonyl)azanediyl))disuccinic acid hydrochloride]",≥ 130,≥ 4
